Reference: patent publication US20130053323A1, “METHODS AND USE RELATED TO HUMANIN AND HUMANIN-LIKE PEPTIDES” (priority 2009, published 2013)

Columns and labels:
growth plate cartilage = assay: Growth plate histology, resting and proliferating chondrocyte zone (R+P); type: in vivo, mice; settings: four weeks
Method: Four weeks old mice (female, FVB) were injected with Dexa dissolved in saline ([…]) subcutaneously in the neck every day for four week. Whereas, HNG (S14G) dissolved in saline (1 μg/mice) was injected intra-peritoneally, 45 minutes prior to the Dexa injection for four weeks, for details see materials and methods. The femur and tibia bones were dissected out and fixed in 4% formalin for 24 hrs, followed by decalcification in 10% EDTA and embedded in paraffin blocks. Five-micrometer-thick sections were prepared from these paraffin blocks. The sections were prepared from the tibial growth plate and stained with Van Gieson. Digital images of stained sections were collected using a Nikon Eclipse E800 microscope (Nikon Corp., Tokyo, Japan) equipped with an Olympus DP70 digital camera (Olympus Sverige AB, Solna, Sweden).
Since a positive effect of HNG (S14G) on bone growth was identified, different zones of chondrocytes were analyzed (resting, proliferative and hypertrophic) in growth plate cartilage, to identify visible changes in these zones. […] These micropgraphas also explain the longitudinal bone growth promoting effects by HNG (S14G) alone or in combination with Dexa.

type-X collagen = assay: Immunohistochemistry for type-X collagen in tibia growth plate; type: in vivo, mice
Method: Four weeks old mice (female, FVB) were injected with Dexa dissolved in saline (20 μg/mice) subcutaneously in the neck every day for four week. Whereas, HNG (S14G) dissolved in saline (1 μg/mice) was injected intra-peritoneally, 45 minutes prior to the Dexa injection. The vehicle group received saline only. The femur and tibia bones were dissected out and fixed in 4% formalin for 24 hrs, followed by decalcification in 10% EDTA and embedded in paraffin blocks. Five-micrometer-thick sections were prepared from these paraffin blocks. After one wash in dH2O, endogenous peroxidase activity was reduced by incubation in 3% hydrogen peroxide in methanol for 5 min at room temperature. The sections were additionally treated with 5 mg/ml hyaluronidase (Sigma-Aldrich, Inc, Steinheim, Germany) for 30 min at 37° C., then blocked in 3% horse serum and incubated overnight at +4° C. with anti-collagen type-X primary antibody (Quartett GmbH, Berlin, Germany; 1:30). Secondary anti-mouse biotinylated antibody (1:300) was purchased from DakoCytomation A/S (Glostrup, Denmark). Sections were washed in TBS, incubated with avidin-conjugated peroxidase (Vector Laboratories) for 60 min, and the resulting peroxidase activity was detected using a DAB Kit (Vector Laboratories). […] Minimum 4 measurements were taken from each sample and measured blindly. n=4-5/group, **p<0.01. […]

NMRI nude mice = assay: Bone growth (X-ray) in tumor-xenografted NMRI nude mice; type: in vivo; settings: HNG 1 μg/mice i.p. + bortezomib 1 mg/kg i.p. days 1, 4, 8, 11, day 13
Method: Male NMRI nu/nu mice (B&K Scanbur, Sweden or Taconic, Denmark) were xenografted at the age of 4 weeks (BW 18-25 g). The mice were anesthetized with 2% fluothane (Zeneca Ltd, Macclesfield, UK) supplemented with 50% N2O in oxygen. Tumor cells (NB (SH-SY5Y; 20×10^6 cells/side) or MB (D-283; 10×10^6 cells/side) in 0.1 ml medium) were implanted s.c. in the hindlegs of the animal using a 23 G needle. Tumors were measured every other day with a digital caliper, starting when they were palpable. At a tumor volume of 0.1 ml or 0.15 ml the animals were randomized into groups (1. Vehicle without tumors; 2. Vehicle with tumors; 3. HNG (S14G; 1 μg/mice); 4. CT (bortezomib; 0.8 mg/kg or 1 mg/kg); 5. HNG (S14G) 1 μg/mice+CT (bortezomib; 0.8 mg/kg or 1 mg/kg), stratified by their bodyweight and treatment started. Treatment regime was the same as in clinical settings with 2 injections/week; 2 weeks treatment (see FIG. 1, Group 1). HNG (S14G) was injected 40 min before the CT (bortezomib) injection. Tumor volume was calculated by the formula 0.44×length×width×width (Wassberg, Pahlman et al. 1997). […] The animal weight and general appearance were recorded every day throughout the experiments. […] After fixation, femur and tibia were measured with digital calipers and decalcified in 5% EDTA and then paraffin embedded. […]

## S14G-HN (MAPRGFSCLLLLTGEIDLPVKRRA) [HNG (S14G)]
Growth plate cartilage; HNG (S14G)/Dexa, vs Dexa only
  size of resting and proliferating chondrocyte zone (R+P): larger than in the Dexa only treated group
Growth plate cartilage; HNG alone 1 μg/mice, vs all other groups
  size of resting and proliferating chondrocyte zone (R+P): appears to be larger
type-X collagen; Dexa 20 μg/mice + HNG 1 μg/mice every day for four weeks, vs Dexa alone, p<0.01
  type-X collagen expression (height): significantly increased
type-X collagen; HNG only, 1 μg/mice every day for four weeks
  type-X collagen expression (height): also increased
NMRI nude mice; medulloblastoma xenograft
  rescue of bortezomib-induced impairment of linear bone growth: able to rescue and prevent the undesired side effects of CT (bortezomib) on linear bone growth
NMRI nude mice; neuroblastoma xenograft
  rescue of bortezomib-induced impairment of linear bone growth: able to rescue and prevent the undesired side effects of CT (bortezomib) on linear bone growth
